Molecules are shown by their SMILES.

This is an account of results in ChEMBL document CHEMBL1629679, “Extended-spectrum cephalosporinases in Pseudomonas aeruginosa” (2009).

Experiment [1] concerns Pseudomonas aeruginosa. Nature of the experiment: Activity at Pseudomonas aeruginosa PDC-2 by spectrophotometer.
Experiment [2] relates to Pseudomonas aeruginosa. As to the kind of experiment: Activity at Pseudomonas aeruginosa PDC-3 by spectrophotometer.
In experiment [3] the test system is Pseudomonas aeruginosa. As to the kind of experiment: Ratio of Kcat to Km for Pseudomonas aeruginosa PDC-2 by spectrophotometer.
Experiment [4] concerns Pseudomonas aeruginosa. As to the kind of experiment: Ratio of Kcat to Km for Pseudomonas aeruginosa PDC-3 by spectrophotometer.

Take `CC1(C)S[C@@H]2[C@H](NC(=O)Cc3ccccc3)C(=O)N2[C@H]1C(=O)O`: the Km in the experiment on Pseudomonas aeruginosa [1] and in the experiment on Pseudomonas aeruginosa [2] was 30 µM in each case. For the same compound, the kcat in the experiment on Pseudomonas aeruginosa [1] and in the experiment with Pseudomonas aeruginosa [2] was 35 s⁻¹ each time. Further, the kcat/Km in the experiment on Pseudomonas aeruginosa [3] and in the experiment on Pseudomonas aeruginosa [4] was 1.2e+06 M⁻¹ s⁻¹ each time.
In the case of `CC(C)(O/N=C(\C(=O)N[C@@H]1C(=O)N2C(C(=O)[O-])=C(C[n+]3ccccc3)CS[C@H]12)c1csc(N)n1)C(=O)O`, the Km in the experiment on Pseudomonas aeruginosa [1] stood at 20 µM; in the experiment on Pseudomonas aeruginosa [2], 35 µM. Moreover, the kcat with Pseudomonas aeruginosa [1] is 0.01 s⁻¹; in the experiment on Pseudomonas aeruginosa [2] it was 0.02 s⁻¹. Besides, the kcat/Km with Pseudomonas aeruginosa [3] was 500 M⁻¹ s⁻¹; with Pseudomonas aeruginosa [4], 600 M⁻¹ s⁻¹.
For the compound `C[C@@H](O)[C@H]1C(=O)N2C(C(=O)O)=C(SCCNC=N)C[C@H]12`, the Km in the experiment with Pseudomonas aeruginosa [1] worked out at 35 µM; with Pseudomonas aeruginosa [2] it was 20 µM. For the same compound, the kcat stood at 0.2 s⁻¹ in the experiment with Pseudomonas aeruginosa [1] and 0.1 s⁻¹ in the experiment on Pseudomonas aeruginosa [2]. The specificity constant (kcat/Km) with Pseudomonas aeruginosa [3] and in the experiment with Pseudomonas aeruginosa [4] was 5000 M⁻¹ s⁻¹ throughout.
Consider `CCN1CCN(C(=O)N[C@@H](C(=O)N[C@@H]2C(=O)N3[C@@H]2SC(C)(C)[C@@H]3C(=O)O)c2ccccc2)C(=O)C1=O`, for which the Km in the experiment with Pseudomonas aeruginosa [1] and in the experiment on Pseudomonas aeruginosa [2] was 40 µM throughout. Besides, the kcat in the experiment with Pseudomonas aeruginosa [1] was 5.5 s⁻¹; in the experiment on Pseudomonas aeruginosa [2], 5 s⁻¹. Moreover, the kcat/Km with Pseudomonas aeruginosa [3] was found to be 135000 M⁻¹ s⁻¹; in the experiment with Pseudomonas aeruginosa [4] it was 125000 M⁻¹ s⁻¹.
Regarding `CO/N=C(\C(=O)N[C@@H]1C(=O)N2C(C(=O)[O-])=C(C[N+]3(C)CCCC3)CS[C@H]12)c1csc(N)n1`, the Km worked out at 850 µM in the experiment on Pseudomonas aeruginosa [1] and 1300 µM with Pseudomonas aeruginosa [2]. Further, the kcat in the experiment on Pseudomonas aeruginosa [1] and in the experiment on Pseudomonas aeruginosa [2] was 2 s⁻¹ each time. In addition, the kcat/Km with Pseudomonas aeruginosa [3] came to 2000 M⁻¹ s⁻¹; in the experiment on Pseudomonas aeruginosa [4], 1500 M⁻¹ s⁻¹.
With `CO/N=C(\C(=O)N[C@@H]1C(=O)N2C(C(=O)O)=C(COC(C)=O)CS[C@H]12)c1csc(N)n1`, the values for the Km with Pseudomonas aeruginosa [1] and in the experiment with Pseudomonas aeruginosa [2] were 5 µM and 8 µM, respectively. In addition, the figures for the kcat in the experiment with Pseudomonas aeruginosa [1] and with Pseudomonas aeruginosa [2] were 5 s⁻¹ and 0.15 s⁻¹, respectively. Also, the kcat/Km with Pseudomonas aeruginosa [3] came to 30000 M⁻¹ s⁻¹; with Pseudomonas aeruginosa [4], 20000 M⁻¹ s⁻¹.
